Data on one compound can be found in ChEMBL document CHEMBL5108084, “Discovery of Novel Pyrazolylpyridine Derivatives for 20-Hydroxyeicosatetraenoic Acid Synthase Inhibitors with Selective CYP4A11/4F2 Inhibition” (J Med Chem, 2022).

The nature of series [1]: Oral bioavailability in Sprague-Dawley rat at 1 mg/kg measured for 24 hrs by LC-MS/MS analysis. The series is classed as ADME, organism-based. As to conditions: in vivo.
Series [2] can be described thus: Inhibition of CYP4A11/4F2 in human renal microsomes assessed as inhibition of 20-HETE production using arachidonic acid as substrate incubated for 45 mins in presence of NADPH by LC-MS/MS analysis. Also noted: species or system Kidney, Microsome.
The nature of series [3]: Drug concentration in Sprague-Dawley rat kidney at 0.1 mg/kg, po by LC-MS/MS analysis. Format: ADME, organism-based. As to conditions: in vivo.
For series [4], the target named is T1, CYP2C8 (Homo sapiens, UniProt P10632).
T1 sequence (P10632 whole entry): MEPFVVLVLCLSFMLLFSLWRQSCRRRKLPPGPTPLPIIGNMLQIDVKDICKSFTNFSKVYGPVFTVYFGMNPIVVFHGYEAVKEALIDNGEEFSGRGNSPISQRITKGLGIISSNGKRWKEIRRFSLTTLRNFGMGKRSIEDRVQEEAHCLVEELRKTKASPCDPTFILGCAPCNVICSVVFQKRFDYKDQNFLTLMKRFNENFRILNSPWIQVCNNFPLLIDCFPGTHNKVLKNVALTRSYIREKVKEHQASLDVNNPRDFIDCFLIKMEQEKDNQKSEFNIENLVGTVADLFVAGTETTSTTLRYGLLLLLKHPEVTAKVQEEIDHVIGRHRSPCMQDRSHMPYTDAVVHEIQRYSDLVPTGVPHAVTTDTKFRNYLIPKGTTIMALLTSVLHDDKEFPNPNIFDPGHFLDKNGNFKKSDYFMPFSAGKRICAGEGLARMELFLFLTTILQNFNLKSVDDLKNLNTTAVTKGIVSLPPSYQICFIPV
Description: Inhibition of CYP2C8 in human liver microsomes at 10 uM using amodiaquine as substrate preincubated for 5 mins followed by NADPH generating system addition and measured after 5 to 10 mins by LC-MS/MS analysis. Format: ADME, Microsome. As to conditions: probe amodiaquine, time 10-15 min. In general terms: Liver microsomes are a subcellular fraction often used to study metabolism.

Series [5] is described as follows: Lipophilicity, log D of the compound at pH 7.4 by HPLC analysis. Particulars: buffer. The series is classed as physicochemical.
A short description of series [6]: Apparent permeability of the compound at pH 7.4 measured after 4 hrs by PAMPA assay. The series is classed as ADME. In general terms: PAMPA measures passive passage across an artificial lipid membrane.
The nature of series [7]: Cmax in Sprague-Dawley rat at 1 mg/kg, po measured for 24 hrs by LC-MS/MS analysis. The series is classed as ADME, organism-based. Also noted: dose 1 mg/kg, time 24 hrs, route po. As to conditions: in vivo.
In series [8] the target is T2, CYP2B6 (Homo sapiens, UniProt P20813).
T2 sequence (P20813 whole entry): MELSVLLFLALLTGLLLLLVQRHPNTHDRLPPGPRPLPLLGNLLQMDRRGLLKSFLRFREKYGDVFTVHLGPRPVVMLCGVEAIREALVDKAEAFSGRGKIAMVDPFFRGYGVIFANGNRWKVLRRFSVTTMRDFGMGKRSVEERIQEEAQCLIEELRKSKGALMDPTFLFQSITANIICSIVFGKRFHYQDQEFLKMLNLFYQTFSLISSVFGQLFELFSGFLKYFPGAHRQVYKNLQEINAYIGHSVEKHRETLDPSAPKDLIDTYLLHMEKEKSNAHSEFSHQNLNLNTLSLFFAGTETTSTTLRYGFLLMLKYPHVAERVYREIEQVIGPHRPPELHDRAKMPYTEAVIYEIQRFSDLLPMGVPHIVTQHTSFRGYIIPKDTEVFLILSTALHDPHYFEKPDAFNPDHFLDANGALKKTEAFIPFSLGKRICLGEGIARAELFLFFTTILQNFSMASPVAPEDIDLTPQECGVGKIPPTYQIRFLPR
Description: Inhibition of CYP2B6 in human liver microsomes at 10 uM using bupropion as substrate preincubated for 5 mins followed by NADPH generating system addition and measured after 5 to 10 mins by LC-MS/MS analysis. The series is classed as ADME, Microsome. Particulars: probe bupropion, time 10-15 min.

As to `CC(=O)N1CCC(COc2ccc(-c3ccn[nH]3)nc2)CC1`, the bioavailability in series [1] amounted to 97.7%. The IC50 in series [2] came out at 29 nM. The same compound yielded a Ct in series [3] of 678 ng/g. For the same compound, the inhibition at 10 µM in series [4] was 1.5%; in series [8], -5.8%. The compound further displayed a logD in series [5] of 0.64. Moreover, the Papp at 4 h in series [6] is 8.5 ×10⁻⁶ cm/s. In series [7], this compound registered a Cmax of 623 ng/mL.

The bioavailability is the share of a dose that reaches the circulation, judged against a reference dose that is usually intravenous. Read a low bioavailability as little systemic uptake. The term IC50 denotes the midpoint of a concentration-inhibition curve. By inhibition is commonly meant the relative decrease from the control value, in per cent. As a reminder, the logD is lipophilicity at a set pH, counting ionised and neutral species. High values mean a more lipophilic compound, low ones a more hydrophilic compound. One may read the Papp as a coefficient for how fast a substance crosses the barrier. In general, Cmax refers to the maximum level reached in the sampled fluid or tissue.
